# According to article PMC9792776 (Frontiers in Pharmacology, 2022):
# What was measured:
# CYP3A4 = CYP3A4 (Homo sapiens, UniProt P08684); experiment: Intrinsic clearance in human recombinant CYP3A4
# [1] = In vitro Caco-2 cell permeability; format: in vitro ADME; conditions: human
# Description: The first-order absorption model has different absorption rate constants (ka) and fraction available from dosage form (fa) to simulate absorption processes in fasting and fed states. […] Caco-2 (human colorectal adenocarcinoma) cells are used to model the intestinal epithelial barrier. The Simcyp (Version 19.0, Certara Inc., Sheffield, UK) minimal PBPK, which treats all organs other than the intestine and liver as a single compartment ([Rowland Yeo et al., 2010]), was selected, along with a single adjusting compartment (SAC) distribution model. The SAC is a nonphysiologic compartment that permits adjustment to the drug concentration profile in the systemic compartment ([Ke et al., 2016]).
# CYP2C9 = CYP2C9 (Homo sapiens, UniProt P11712); conditions: recombinant enzyme
# CYP2C9, sequence (P11712 whole entry): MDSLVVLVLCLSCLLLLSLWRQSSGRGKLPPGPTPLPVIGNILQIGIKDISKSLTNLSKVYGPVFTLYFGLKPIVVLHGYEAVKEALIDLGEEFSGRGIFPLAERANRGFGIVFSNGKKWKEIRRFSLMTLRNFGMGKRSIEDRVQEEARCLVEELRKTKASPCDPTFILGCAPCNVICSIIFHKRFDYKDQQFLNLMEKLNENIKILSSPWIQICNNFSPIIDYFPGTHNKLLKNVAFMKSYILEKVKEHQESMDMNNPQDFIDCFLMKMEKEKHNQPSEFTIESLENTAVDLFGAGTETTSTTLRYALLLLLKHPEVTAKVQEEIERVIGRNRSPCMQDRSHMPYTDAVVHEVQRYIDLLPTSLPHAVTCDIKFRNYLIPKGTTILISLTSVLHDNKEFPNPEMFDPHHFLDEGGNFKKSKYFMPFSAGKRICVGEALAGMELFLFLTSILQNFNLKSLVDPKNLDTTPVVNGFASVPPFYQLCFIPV
# CYP3A4, sequence (P08684 whole entry): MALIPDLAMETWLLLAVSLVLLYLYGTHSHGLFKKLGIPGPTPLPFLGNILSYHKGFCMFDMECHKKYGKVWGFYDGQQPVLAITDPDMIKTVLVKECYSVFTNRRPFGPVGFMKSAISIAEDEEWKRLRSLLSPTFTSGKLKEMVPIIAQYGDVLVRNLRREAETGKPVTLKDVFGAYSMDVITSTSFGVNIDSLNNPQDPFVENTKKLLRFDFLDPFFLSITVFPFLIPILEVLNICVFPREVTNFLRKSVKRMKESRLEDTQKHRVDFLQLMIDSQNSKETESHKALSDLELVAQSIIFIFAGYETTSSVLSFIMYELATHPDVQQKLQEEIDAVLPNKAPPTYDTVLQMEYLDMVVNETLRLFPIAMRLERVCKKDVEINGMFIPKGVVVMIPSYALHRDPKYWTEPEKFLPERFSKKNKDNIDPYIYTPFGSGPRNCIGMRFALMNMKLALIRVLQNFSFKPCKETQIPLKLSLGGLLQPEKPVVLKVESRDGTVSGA
structure (smiles),measurement,setting,value
"Cc1ncc2n1-c1ccc(Cl)cc1C(c1ccccc1F)=NC2 [Midazolam, reference compound]",CLint CYP3A4,CYP3A4,3.083 µL/min/pmol CYP
"CC(C)NCC(O)COc1cccc2ccccc12 (stereo not drawn) [Propranolol, propranolol, reference compound]",Papp,[1],5.68 ×10⁻⁶ cm/s
O=C(O)Cc1ccccc1Nc1c(Cl)cccc1Cl [Diclofenac],CLint CYP2C9,CYP2C9,2.965 µL/min/pmol CYP
